{
  "source": "patent US6682914B2",
  "about": "“Bioactive tetracyclic diterpene compounds and methods of preparation and use thereof” (Universidad del Pais Vasco/Euskal Herriko Unibersitatea, priority 2001, dated 2004)",
  "test_system": "Aspergillus nidulans",
  "assay": "Conidiation-inducing bioassay modified for Aspergillus (conidiophores per mycelial pellet)",
  "format": "cell-based",
  "details": "control at least 28 hours",
  "description": "Assays were carried out in shaken flask cultures using 25 mL. […] Determination of conidiation inducing activity was followed by microscopic observation of mycelium samples taken at different times. For these purposes, conidiation time was defined as the time at which 50% of the hyphal tips attained the final stage of conidiation (conidia-bearing tips), according to previously established criteria (Ugalde and Pitt, 1983), namely, the direct microscopic observation of three separate groups of 500 hyphal tips, and the determination of the proportion of hyphal tips in each group which bear conidia.\nThe bioassay procedure described above was used to assess qualitatively in other filamentous fungi, in particular, those of the genus Aspergillus, the conidiation-inducing activity of the compounds that were extracted, isolated and purified from Penicillium cyclopium in accordance with Example 1. […] Thus, the criteria employed to determine the time of conidiation in these cases was the appearance of at least two conidiophores (the specific phialide bearing structure for this genus) on average per mycellial pellet, measured from a minimum of 10 pellets.",
  "data": [
    {"smiles": "CC1C(O)CC(=O)C2(C)CCC3C4C(C)(C)CCC4(C)CC132", "note": "(stereo not drawn) [conidiogenone, (1R*, 3R*, 7R*, 8S*, 11R*, 14S*, 15R*)-14-Hydroxy-3,6,6,11,15pentamethyl-tetracyclo[9.4.0.0^1,8.0^3,7]-pentadecan-12-one]", "values": [
      {"measurement": "time of incubation to positive conidiogenic activity (at least two conidiophores per mycelial pellet)", "setting": "25-50 ng/mL in culture medium", "result": 22, "unit": "h"}
    ]},
    {"smiles": "CC1C(O)CC(O)C2(C)CCC3C4C(C)(C)CCC4(C)CC132", "note": "(stereo not drawn) [conidiogenol, (1R*, 3R*, 7R*, 8S*, 11R*, 12R*, 14S*, 15R*)-3,6,6,11,15-pentamethyl-tetracyclo[9.4.0.0^1,8.0^3,7]-pentadecan-12,14-diol]", "values": [
      {"measurement": "time of incubation to positive conidiogenic activity (at least two conidiophores per mycelial pellet)", "setting": "100 ng/mL in culture medium", "result": 22, "unit": "h"}
    ]}
  ]
}
